Measured values reported in ChEMBL document CHEMBL1146869 (Bioorg Med Chem Lett, 2006).
Converted amounts (≈) assume the structure as drawn.

What was measured:
[1] = target: T1, Prostaglandin G/H synthase 1 (Ovis aries, UniProt P05979); experiment: Inhibition of COX1; parameters: species or system Homo sapiens
T1 sequence (P05979 whole entry): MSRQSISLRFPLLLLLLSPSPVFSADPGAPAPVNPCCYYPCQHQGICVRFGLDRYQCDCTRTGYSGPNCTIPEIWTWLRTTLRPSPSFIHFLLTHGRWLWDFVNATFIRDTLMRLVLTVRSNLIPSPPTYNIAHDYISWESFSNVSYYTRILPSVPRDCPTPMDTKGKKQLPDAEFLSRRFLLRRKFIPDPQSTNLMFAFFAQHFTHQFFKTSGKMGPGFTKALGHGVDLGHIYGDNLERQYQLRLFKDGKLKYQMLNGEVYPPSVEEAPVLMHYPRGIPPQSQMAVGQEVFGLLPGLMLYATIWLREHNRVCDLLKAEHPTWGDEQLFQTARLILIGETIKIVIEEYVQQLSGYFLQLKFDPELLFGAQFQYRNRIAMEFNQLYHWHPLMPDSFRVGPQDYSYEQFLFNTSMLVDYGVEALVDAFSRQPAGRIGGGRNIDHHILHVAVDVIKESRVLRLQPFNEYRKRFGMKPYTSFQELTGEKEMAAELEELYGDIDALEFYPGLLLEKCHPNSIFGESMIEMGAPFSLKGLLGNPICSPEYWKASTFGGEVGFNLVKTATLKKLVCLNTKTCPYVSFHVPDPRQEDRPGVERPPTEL

Rattus norvegicus [2] = experiment: Gastric toxicity in rat at 20 mg/kg, iv; assay type: organism-based; parameters: dose 20 mg/kg, route intravenous; settings: in vivo
Rattus norvegicus [3] = experiment: Anti-inflammatory activity against carrageenan-induced paw edema in Sprague-Dawley rat at 3 mg/kg, iv after 5 hrs; assay type: functional, organism-based; parameters: dose 3 mg/kg, route intravenous
[4] = target: T2, Prostaglandin G/H synthase 2 (Homo sapiens, UniProt P35354)
T2 sequence (P35354 whole entry): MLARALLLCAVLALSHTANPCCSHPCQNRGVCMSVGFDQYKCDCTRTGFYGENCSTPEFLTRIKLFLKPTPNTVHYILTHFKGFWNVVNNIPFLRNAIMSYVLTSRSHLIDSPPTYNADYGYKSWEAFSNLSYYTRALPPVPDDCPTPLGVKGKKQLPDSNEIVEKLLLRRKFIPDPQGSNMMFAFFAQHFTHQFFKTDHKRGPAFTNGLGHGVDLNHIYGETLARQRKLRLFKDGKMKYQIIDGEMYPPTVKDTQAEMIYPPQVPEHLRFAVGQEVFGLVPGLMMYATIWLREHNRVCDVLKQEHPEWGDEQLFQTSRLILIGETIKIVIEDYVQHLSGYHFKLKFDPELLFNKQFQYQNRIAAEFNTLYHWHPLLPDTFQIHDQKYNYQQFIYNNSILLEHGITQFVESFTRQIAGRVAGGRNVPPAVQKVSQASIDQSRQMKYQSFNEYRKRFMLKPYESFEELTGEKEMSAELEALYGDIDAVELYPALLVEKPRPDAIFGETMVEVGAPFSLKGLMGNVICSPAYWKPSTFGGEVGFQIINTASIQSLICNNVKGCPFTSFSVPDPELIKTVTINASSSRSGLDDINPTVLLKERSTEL

Rattus norvegicus [5] = experiment: Anti-inflammatory activity against carrageenan-induced paw edema in Sprague-Dawley rat at 3 mg/kg, iv after 3 hrs; assay type: functional, organism-based; parameters: dose 3 mg/kg, route intravenous
[6] = Aqueous solubility of the compound; assay type: physicochemical; settings: water
Rattus norvegicus [7] = experiment: Gastric toxicity in rat at 40 mg/kg, iv; assay type: organism-based; parameters: dose 40 mg/kg, route intravenous; settings: in vivo

Row | SMILES | IC50 [1] [nM] | Activity (Rattus norvegicus [2]) | inhibition in vivo at 3 mg/kg (Rattus norvegicus [3]) [%] | IC50 [4] [nM] | inhibition in vivo at 3 mg/kg (Rattus norvegicus [5]) [%] | solubility [6] [mg/mL] | Activity (Rattus norvegicus [7])
1 | Cc1ccc(-c2cc(C(F)(F)F)nn2-c2ccc(-c3nnn[nH]3)cc2)cc1 | 4.1 | Not Active | 34.7 | 1.9 | 40.2 | 100 (≈ 270 mM) | 
2 | O=C1OCC(c2ccc(-c3nn[nH]n3)cc2)=C1c1ccccc1 | 3.8 | Not Active | 28 | 1.8 | 34.1 | 125 (≈ 411 mM) | 
3 | O=C([O-])Cc1ccccc1Nc1c(Cl)cccc1Cl.[Na+] [DICLOFENAC SODIUM] |  | 22.8 |  |  |  |  | 51.5
4 | CCC(=O)[N-]S(=O)(=O)c1ccc(-c2c(-c3ccccc3)noc2C)cc1.[Na+] [PARECOXIB SODIUM] |  |  | 42 |  | 62.8 |  | Not Active
